Our source for the EC50 values is patent publication US12139474B2, “LPA receptor antagonists and uses thereof” (Gilead Sciences, Inc., priority 2020, dated 2024).

What is called EC50 is the concentration that produces a half-maximal response.

The target of this assay is T1, human LPAR1 (Homo sapiens, UniProt Q92633).
T1 construct: host or cells: CHO-K1
T1 sequence (Q92633 whole entry): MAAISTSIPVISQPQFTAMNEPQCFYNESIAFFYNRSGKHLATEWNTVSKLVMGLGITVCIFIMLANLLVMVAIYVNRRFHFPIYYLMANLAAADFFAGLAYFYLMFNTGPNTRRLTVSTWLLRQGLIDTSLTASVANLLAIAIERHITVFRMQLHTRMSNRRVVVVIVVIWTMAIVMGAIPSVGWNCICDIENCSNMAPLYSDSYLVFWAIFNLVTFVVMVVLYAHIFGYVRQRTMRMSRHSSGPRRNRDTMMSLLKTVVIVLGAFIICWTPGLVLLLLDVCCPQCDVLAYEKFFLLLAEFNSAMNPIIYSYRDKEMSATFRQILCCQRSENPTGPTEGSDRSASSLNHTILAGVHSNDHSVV
Put plainly: LPAR1 intracellular calcium mobilization assay (antagonist mode). Type of assay: cell-based. The note with it: CHO-K1 EDG2 cells expressing human LPAR1; 60 min pre-incubation with compound, then LPA 18:2 at EC80 (100 nM); FLIPR calcium signal. Here is the method:
In vitro LPAR1 activity was measured in an intracellular calcium mobilization assay.
CHO-K1 EDG2 cells (DiscoverX cat #93-0644C2) expressing human LPAR1 (NM_001401.3) were seeded in a total volume of 25 μL of Dulbecco's Modification of Eagle's Medium (DMEM) with 10% Fetal Bovine Serum, 1× PenStrepGlutamine, 300 ug/ml Hygromycin, and 800 ug/ml G418 into 384-well tissue culture plate (Grenier #781091) at 15,000 cells/well and incubated at 37° C. overnight. Prior to testing, 25 μL Calcium Loading Dye Component A (FLIPR Calcium 6 Assay Kit Molecular Device #R8190) and 2.5 mM Probenecid (Invitrogen #P36400, prepared fresh) in Hank's Balanced Salt Solution (Corning #21-023-CV), 20 mM HEPES (Corning #25-060-CI), 0.1% Bovine Serum Albumin (Sigma-Aldrich #A7906-500G) was add to the cells for 60 minutes at 37° C.
Agonist dose curves of LPA 18:2 (Avanti Polar Lipids cat #857138, 0.5 nM to 10 μM) were recorded to determine the LPA 18:2 EC80 for subsequent antagonist assays. For agonist dose curves, cells were removed from the incubator 2 hours after dye loading and transferred to the FLIPR Tetra instrument (Molecular Devices, San Jose, CA). Calcium mobilization was monitored for 5 min and 10 μL 6× LPA in HBSS/20 mM Hepes/0.1% bovine serum albumin (BSA) was added to the cells 5 seconds into the assay.
To determine the LPAR1 antagonist activity of test compounds, cells were pre-incubated with test compound at a dose range of 0.5 nM to 10 μM, followed by LPA at EC80 concentration (100 nM). After dye loading, cells were removed from the incubator and 0.3 μL of 200× antagonist was added. Cells were incubated for 60 minutes at 37° C. Antagonist activity was measured on a FLIPR Tetra. Calcium mobilization was monitored for 3.5 minutes and 10 μL 6× EC80 LPA in HBSS, 20 mM HEPES, and 0.1% BSA was added to the cells 5 seconds into the assay. Signal amplitude (Maximum minus minimum) values were plotted against log10 of antagonist concentration using Dose Response Tool (Gilead Sciences Inc.) to determine EC50.
To assess the antagonistic potential of exemplified compounds EC50 values were determined for Compounds 1 to 32 in the LPAR1 calcium mobilization assay. The compound numbers correspond to the compound numbers in Examples 1 to 33.
Background: A change in cytosolic calcium serves as a functional read-out for many receptors and channels.
With `C[C@@H](OC(=O)Nc1c(-c2ccc3c(n2)COC(=O)N3)nnn1C)c1cccnc1Cl` [Compound 25, [(1R)-1-(2-chloro-3-pyridyl)ethyl] N-[3-methyl-5-(2-oxo-1,4-dihydropyrido[3,2-d][1,3]oxazin-6-yl)triazol-4-yl]carbamate], the EC50 is 140 nM.
Regarding `C[C@@H](OC(=O)Nc1c(-c2ccc3c(c2)N(C)CC(=O)N3)nnn1C)c1ccccc1Cl` [Compound 19, (R)-1-(2-chlorophenyl)ethyl (1-methyl-4-(4-methyl-2-oxo-1,2,3,4-tetrahydroquinoxalin-6-yl)-1H-1,2,3-triazol-5-yl)carbamate], the EC50 is 265 nM.
As for `CC1Oc2nc(-c3nnn(C)c3NC(=O)O[C@H](C)c3cc(F)cnc3F)ccc2NC1=O` (stereo partly drawn) [Compound 32, (R)-1-(2,5-difluoropyridin-3-yl)ethyl (1-methyl-4-(3-methyl-2-oxo-2,3-dihydro-1H-pyrido[2,3-b][1,4]oxazin-6-yl)-1H-1,2,3-triazol-5-yl)carbamate], the EC50 is 3780 nM.
For `C[C@@H](OC(=O)Nc1c(-c2ccc3c(c2)CCC(=O)N3)nnn1C)c1ccccc1Cl` [Compound 11, (R)-1-(2-chlorophenyl)ethyl (1-methyl-4-(2-oxo-1,2,3,4-tetrahydroquinolin-6-yl)-1H-1,2,3-triazol-5-yl)carbamate] the value was 46 nM; for `C[C@@H](OC(=O)Nc1c(-c2nc3c(cc2F)NC(=O)CO3)nnn1C)c1cccnc1Cl` [Compound 28, (R)-1-(2-chloropyridin-3-yl)ethyl (4-(7-fluoro-2-oxo-2,3-dihydro-1H-pyrido[2,3-b][1,4]oxazin-6-yl)-1-methyl-1H-1,2,3-triazol-5-yl)carbamate], 660 nM; for `C[C@@H](OC(=O)Nc1c(-c2ccc3c(c2)CCC(=O)N3)nnn1C)c1cccnc1Cl` [Compound 17, (R)-1-(2-chloropyridin-3-yl)ethyl (1-methyl-4-(2-oxo-1,2,3,4-tetrahydroquinolin-6-yl)-1H-1,2,3-triazol-5-yl)-carbamate], 390 nM.
